# Like-named read-outs stand apart in the source and are kept apart here.
# B1: HIV-1 integrase (recombinant IN) (enzyme)
# chain: FLDGIDKAQEEHEKYHSNWRAMASDFNLPPVVAKEIVASCDKCQLKGEAMHGQVDCSPGIWQLDCTHLEGKVILVAVHVASGYIEAEVIPAETGQETAYFLLKLAGRWPVKTVHTDNGSNFTSTTVKAACWWAGIKQEFGIPYNPQSQGVIESMNKELKKIIGQVRDQAEHLKTAVQMAVFIHNFKRKGGIGGYSAGERIVDIIATDIQTKELQKQITKIQNFRVYYRDSRDPVWKGPAKLLWKGEGAVVIQDNSDIKVVPRRKAKIIRDYGKQMAGDDCVASRQDED
# notes: also called WT IN; source: recombinant
# B2: HIV-1 integrase in virus particles (enzyme)
# chain: B1 chain
# notes: also called virion-associated IN
# Legend:
# [1] = system: HIV-1; parameters: method as in PMID 24040198; conditions: ref 41; read-out: IC50 in target cells; cited from earlier work
# [2] = system: HIV-1; assay: Antiviral assay, late stage (inhibitor added to producer cells); type: cell-based; conditions: Human immunodeficiency virus 1, virions prepared in presence of inhibitor, untreated target cells; called IC50
# Description: Results represent mean ± SD from three independent experiments.
# For late stage experiments, the progeny virions were prepared in the presence of the indicated concentrations of the test inhibitor or diluent control (DMSO) and were then used to infect untreated target cells.
# [3] = system: VSV-G pseudotyped HIV-1-Luc in PSIP1 KO HEK293T cells; assay: microbe, parasite or virus in culture; type: cell-based
# [4] = system: LEDGF/p75-dependent HIV-1 integration; assay: HIV-1 integration site distribution (ligation-mediated PCR, 454-pyrosequencing); type: cell-based
# [5] = system: HIV-1NL4-3; conditions: cited from earlier work
# [6] = system: HIV-1 expression; type: cell-based; conditions: for inhibition of HIV-1 expression: target cells
# [7] = system: HIV-1NL4-3; assay: microbe, parasite or virus in culture; type: cell-based; conditions: for Selectivity Index, CC50/IC50: CC50 for cytotoxicity by IC50 for antiviral activity
# [8] = in vitro; type: cell-based
# Description: The cytotoxcity assays were performed as described previously. The fitted dose-response curves were generated to calculate EC50 or CC50 using Origin software (OriginLab, Inc.).
# [9] = biological target: T1, HIV-1 IN (Human immunodeficiency virus type 1 group M subtype B, UniProt P12497); assay: biochemical
# Description: (§1) HTRF-based IN multimerization and IN-LEDGF/p75 binding assays were carried out as described previously [33]. The HTRF signal was recorded using a Perkin Elmer Multimode EnSpire plate reader.
# [10] = biological target: T2, IN-LEDGF/p75 (Human immunodeficiency virus type 1 group M subtype B, UniProt P12497); assay: HTRF-based IN-LEDGF/p75 binding assay; parameters: species or system HIV-1
# Description: HTRF-based IN multimerization and IN-LEDGF/p75 binding assays were carried out as described previously [33].
# [11] = biological target: T1, HIV-1 IN; conditions: IC50 for inhibiting IN-LEDGF/p75 binding divided by EC50 for aberrant IN multimerization; fold
# Description: as §1
# [12] = biological target: T2, IN-LEDGF/p75; parameters: method as in PMID 22437836; conditions: HTRF; read-out: IC50 for IN-LEDGF/75 binding; cited from earlier work
# [13] = system: A128T IN HIV-1NL4-3; assay: A128T HIV-1 infectivity in TZM-bl cells; type: cell-based; conditions: particles produced in presence of inhibitor
# [14] = biological target: T1, HIV-1 IN; parameters: DLS analysis of KF116-induced multimerization of recombinant IN; method as in PMID 22437836; conditions: HTRF; read-out: EC50 for aberrant IN multimerization; cited from earlier work
# [15] = system: VSV-G pseudotyped HIV-1-Luc; type: cell-based
# [16] = biological target: the molecule itself; assay: AlphaScreen or HTRF; HTRF-based IN multimerization assay in vitro, compound (KF115 or KF116) titrated; carried out as described in ref. 33
# [17] = biological target: the molecule itself; assay: cross-linking; concentrated, detergent-lysed virions (50 ng p24) from HEK293T cells treated with DMSO or 1 µM KF116; 50 µM BS3; SDS-PAGE and immunoblot with HIV-1 IN antibody
# [18] = Target, 5 µM, *** P<0.001 vs DMSO
# [19] = target cells, 10 µM, *** P<0.001 vs DMSO
# [20] = ref 33, 41, read-out: antiviral activity IC50
molecule,measurement,setting,value
"Cc1nc2ccccc2c(-c2cc(F)c3c(c2C)CCCO3)c1[C@H](OC(C)(C)C)C(=O)O [GS-B, reference compound]",IC50,[1],~700 nM
same,EC50,[2],39 nM
same,effect of complete loss of LEDGF/p75 protein in virus-producer cells on IC50 values,[3],did not alter
same,% in RefSeq (HIV-1 integration frequency),"[4]; Producer, 100 nM",84.00%
same,% in known genes (HIV-1 integration frequency),"[4]; Producer, 100 nM",85.71%
same,% in RefSeq (HIV-1 integration frequency),[4]; [18],73.83%
same,% in known genes (HIV-1 integration frequency),[4]; [18],75.74%
same,% in RefSeq (HIV-1 integration frequency),[4]; [19],74.76%
same,% in known genes (HIV-1 integration frequency),[4]; [19],77.39%
same,IC50,[5]; [20],~26 nM
same,EC50,"[5]; same value given in b14 with ref 33, 41, read-out: EC50 for full replication cycle",~26 nM
same,inhibition of HIV-1 expression,[6]; 5 µM,~71%
same,inhibition of HIV-1 expression,[6]; 10 µM,~88%
same,reduction in target cell HIV-1 expression,[6]; virus-producer cells treated with 0.1 µM,~77%
Cc1ccc(-c2nc(C)c(C(OC(C)(C)C)C(=O)O)c(-c3ccc(Cl)cc3)c2C)cc1C (stereo not drawn) [KF115],"Selectivity Index, CC50/IC50",[7],>826
same,IC50,"[7]; Human immunodeficiency virus 1, read-out: Antiviral activity (IC50), HIV-1NL4-3, full replication cycle",~121 nM
same,CC50,[8],> 100000 nM
same,EC50,[9],274 ± 25 nM
same,IC50,[10],13000 ± 1500 nM
same,"Selectivity ratio, IC50 IN-LEDGF/EC50 aberrant IN multimerization",[11],47.4
"COC(C(=O)O)c1c(C)nc2ccc(Br)cc2c1-c1ccc(Cl)cc1 (stereo not drawn) [BI-1001, reference compound]","Selectivity Index, CC50/IC50",[7],>17
same,IC50,[12],1000 ± 100 nM
same,CC50,[8],> 100000 nM
same,A128T IN HIV-1NL4-3 replication in infected cells,[13],marked resistance
same,IC50,[5]; [20],~5800 nM
same,IC50,"[5]; ref 33, read-out: Antiviral activity (IC50)",5800 ± 100 nM
same,EC50,[14],4900 ± 300 nM
same,"Selectivity ratio, IC50 IN-LEDGF/EC50 aberrant IN multimerization",[11],0.2
"Cc1nnc(C(=O)NC(C)(C)c2nc(C(=O)NCc3ccc(F)cc3)c(O)c(=O)n2C)o1 [RAL, Raltegravir, reference compound]",effect on replication intermediates in target cells of virions produced in presence of inhibitor,[15],no inhibitory effects
same,effect on replication intermediates when inhibitor added to target cells,[15],selectively inhibited the integration step and increased the levels of 2-LTRs
B1,EC50 of KF115 for aberrant IN multimerization (with KF115),[16],274 nM
same,EC50 of KF116 for aberrant IN multimerization (with KF116),[16],86 nM
B2,stoichiometry N,[17],2
